Like-named read-outs stand apart in the source and are kept apart here.

This experiment deals with Sham transfected HEK293T/G16gust44 cells. As to the method: The above procedure was also carried out for HEK293T/G16gust44 cells, formed as described in WO 2004/055048 with the exception that no DNA was added during the process. These cells are termed Sham transfected cells.
On day 0, the HEK293T cells formed as described in example 2, were seeded in antibiotic-free growth medium (standard DMEM with 10% (v/v) heat-inactivated fetal bovine serum, 2 mM L-glutamine […], 100 units/ml penicillin, and 100 [g/ml streptomycin) into black wall/clear bottom 96-well plates, coated with poly(ethylenimine) (0.005% v/v) at a concentration of 15,000 cells per well and incubated for 48 hours in humidified atmosphere (37° C., 5% CO2).
Prior to performing the assay, the growth medium was discarded and the cells were left in a humidified atmosphere (37° C., 5% CO2) for 1 hour with 50 μl of loading buffer consisting of 1.5 μM Fluo-4 AM and […] probenicid (Sigma-Aldrich, St. Louis, Mo., US) in DMEM.
Following this the 96-well plate was washed 5 times with 100 μl of assay buffer (130 mM NaCl, 5 mM KCl, 10 mM 4-(2-hydroxyethyl)-1-piperazineethanesulfonic acid (HEPES), 2 mM CaCl2, and 5 mM dextrose, pH 7.4) per well, using an automated plate washer (BioTek).
The plate was then further incubated for 30 minutes at room temperature in the dark to allow for complete de-esterification of the Fluo-4. Afterwards the plate was washed 5 times with 100 μl of assay buffer per well, and reconstituted with 100 μl of assay buffer per well.
Cyclamate solutions ranging in concentration from 250 mM to 800 mM were prepared in assay buffer.
To test receptor activation 20 μl of one of these cyclamate test solutions was added to the assay buffer of at least one well of the 96 well plate. This step was repeated until all cyclamate solutions of differing concentrations had been added to at least one well. Care was taken to ensure that only one cyclamate solution was added per well. The resulting cyclamate concentrations in the well plates ranged in concentration from 25 mM to 80 mM (This is due to the dilution of the cyclamate solution in the assay buffer present in the well).
For assay reading, the plate was placed in a Fluorometric Imaging Plate Reader (FLIPR) (FLIPR-TETRA™, Molecular Devices, Sunnyvale, Calif., US).
For each well of the plate fluorescence was continuously monitored for 20 seconds to give a signal baseline (averaged to give F0) prior to cyclamate addition and for 120 seconds after cyclamate addition. The change in signal divided by F0 gives ΔF/F0 indicated in the table, with ΔF being the maximum signal occurring within the 120 seconds minus the minimum signal (occurring within the 120 seconds after cyclamate addition.
As a control the above procedure was also carried out for the sham transfected cells formed as described in example 2.

Take `O=S(=O)(O)NC1CCCCC1` [Cyclamate, cyclamate]: the “Cyclamate Average ΔF/F0, Sham Transfected” value (“Cyclamate Average ΔF/F0” below) runs as follows: (cyclamate 25 mM in well) 0.186; (cyclamate 30 mM in well) 0.182; (cyclamate 35 mM in well) 0.198; (cyclamate 40 mM in well) 0.204; (cyclamate 45 mM in well) 0.194; (cyclamate 50 mM in well) 0.2. The “Cyclamate Average ΔF/F0” value (cyclamate 55 mM in well) amounted to 0.182; the “Cyclamate Average ΔF/F0” value (cyclamate 60 mM in well) is reported as 0.16; the “Cyclamate Average ΔF/F0” value (cyclamate 65 mM in well) is given as 0.17; the “Cyclamate Average ΔF/F0” value (cyclamate 70 mM in well) is 0.14; the “Cyclamate Average ΔF/F0” value (cyclamate 75 mM in well) amounted to 0.11; the “Cyclamate Average ΔF/F0” value (cyclamate 80 mM in well) stood at 0.178.

Values taken from patent US20130123135A1, “Methods To Identify Modulators of TAS2R48 Receptors” (priority 2010, published 2013).
